One assay concerns reverse transcriptase. The assay can be described thus: reverse transcriptase assay of cell-free supernatant. In kind it is cell-based, HIV. The following applies: in vitro. On the procedure:
(§1) Activity was also examined by determination of p24 and reverse transcriptase concentrations.
Reverse transcriptase assays were performed according to the method of Hoffman et al, Virology, 147, 326-335 (1985), with minor modifications. Briefly, 15 µl of cell-free supernatant was mixed with 10 μl of RT reaction buffer. The total 25 μl reaction mixture consisted of 2.5 μCi of tritated thymidine triphosphate (TTP) (ICN, 80 Ci/mmol), poly rA (50 ng/ml):oligo dT (10 ng/ml) template:primer (Pharmacia), 10 mM Tris, pH 7.6, 8 mM magnesium chloride, 10 mM dithiothreitol (DTT), and, in the standard reaction, 0.5% Triton X-100. Assays were performed in the absence of added EGTA unless indicated. When EGTA (Sigma) was added it was at a concentration of 1 mM. The reactions were incubated for 60 minutes at 37° C. The reaction volume was then spotted onto DE81 chromatography paper (Whatman), washed extensively in 5% dibasic sodium phosphate, and counted for incorporated radioactivity in a toluene-based scintillation cocktail. Assays were also performed to measure the presence of a nuclease activity associated with HIV virions. […] The HIV virion sample was added to the AMV RT reaction product and the amount of radioactivity able to bind to DE81 paper was monitored after varying times of incubation at 37° C. […]

The test system of assay [1] is HIV. The assay can be described thus: in vitro testing for infectious particles. In kind it is cell-based.
A further assay has as its system HIV-1 p24. The assay can be described thus: p24 antigen-capture assay. In kind it is cell-based. The following applies: in vitro. On the procedure: as §1
To determine p24, a p24 antigen-capture assay was used. Culture fluids harvested from drug test plates or other sources were diluted 1:100 in 10% triton X-100 and stored frozen at -70° C. 200 μL aliquots of the triton treated samples were added in duplicate to microtiter wells previously coated with rabbit polyclonal anti-HIV-1 p24 serum and incubated at room temperature overnight. After washing and blotting, 100 μL of biotinylated polyclonal anti-HIV p-24 was added to each of the appropriate wells, and the plates were re-incubated at 37° C. for 60 minutes. A solution of streptavidin-horseradish peroxidase was added after additional washing and blotting. The contents of each plate were mixed and reincubated for 15 minutes at room temperature and, after washing and blotting, the o-phenylenediamine dihydrochloride substrate was added in 100 μL aliquots. Color was allowed to develop in the dark room at room temperature for 30 minutes, and the reaction was halted by the addition of 4 N H2 SO4. Optical density was measured at 490 nm, and the concentration of p24 was determined by comparison with a standard curve of known concentrations of p24. Eislow, O., et al., J. Nat'l Cancer Inst., 81 (8):577-86 (1989).

Assay [2] deals with HIV. The assay can be described thus: NCI in vitro anti-HIV screen (XTT soluble-formazan assay, protection of HIV-infected CEM cells). In kind it is cell-based. The text has this:
The National Cancer Institute's procedure for testing for agents active against Human Immunodeficiency Virus (HIV) (Weislow, O. W. et al, "New soluble-formazan assay for HIV-1 cytopathic effects: application to high-flux screening of synthetic and natural products for AIDS-antiviral activity," J. Natl. Cancer Inst., 81, 577-586, 1989) is designed to detect agents acting at any stage of the virus reproductive cycle. The assay includes the killing of T4 lymphocytes by HIV. Pursuant to the test, small amounts of HIV are added to cells, and a complete cycle of virus reproduction is necessary to obtain the required cell killing. Agents that interact with virions, cells, or virus gene-products to interfere with viral activities will protect cells from cytolysis. The system is thus designed to detect anti-HIV activity. However, compounds that degenerate or are rapidly metabolized in the culture conditions may not show activity in this screen. All tests are compared with at least one positive (e.g., AZT-treated) control done at the same time under identical conditions.
(§2) 1. The candidate agent is dissolved in dimethyl sulfoxide (unless otherwise instructed), then diluted 1:200 in cell culture medium. Further dilutions (half-log10) are prepared before adding to 96-well microtiter plates.
(§3) 2. T4 lymphocytes (CEM cell line) are exposed to HIV at a virus-to-cell ratio of approximately 0.05 and are plated along with non-infected control cells into drug-containing wells or wells with medium alone.
(§4) 3. Cultures are incubated at 37° in a 5% carbon dioxide atmosphere for 6 days.
(§5) 4. The tetrazolium salt, XTT, is added to all wells, and cultures are incubated to allow formazan color development by viable cells.
(§6) 5. […] are analyzed spectrophotometrically to quantitate formazan production and, in addition, are viewed microscopically for detection of viable cells and confirmation of protective activity.
(§7) 6. Drug-treated virus-infected cells are compared with drug-treated non-infected cells and with other appropriate controls (untreated infected and untreated non-infected cells, drug-containing wells without cells, etc.) on the same plate.
(§8) 7. Data are reviewed in comparison with other tests performed at the same time, and a determination about activity is made.
Approximate values for 50% effective concentration (EC50) (protection in infected cells), 50% inhibitory concentration (IC50) and the therapeutic index (IC50 /EC50) have been calculated for each test and are provided in the tables of each Example.
Examples 1, 6 and 8 compounds, respectively, against the measured test values expressed as a percentage of the uninfected, untreated control values. The solid line depicts the percentage of surviving HIV-infected cells treated with sample (at the indicated concentration) relative to uninfected, untreated controls. The solid line expresses the in vitro anti-HIV activity of the compound of the tested compound. The dashed line depicts the percentage of surviving uninfected cells treated with the compound of the Example relative to the same uninfected, untreated controls. The dashed line expresses the in vitro growth inhibitory properties of the compound of the Example. The viral cytopathic effect of a compound of each Example is indicated by a combination of dashes and dots. […] Survival values of this parameter less then 50% are considered acceptable in the current protocol.
(In general: Tetrazolium dyes change colour on reduction, which living cells bring about.)

In assay [3] the test system is T4 lymphocytes (CEM cell line). The assay can be described thus: NCI in vitro anti-HIV screen, growth inhibition of uninfected CEM cells (XTT). The format is cell-based. The following applies: read-out: IC50 (50% inhibitory concentration). The procedure: The assay includes the killing of T4 lymphocytes by HIV. Pursuant to the test, small amounts of HIV are added to cells, and a complete cycle of virus reproduction is necessary to obtain the required cell killing. Agents that interact with virions, cells, or virus gene-products to interfere with viral activities will protect cells from cytolysis. The system is thus designed to detect anti-HIV activity. However, compounds that degenerate or are rapidly metabolized in the culture conditions may not show activity in this screen. All tests are compared with at least one positive (e.g., AZT-treated) control done at the same time under identical conditions.
as §2, §3, §4, §5, §6, §7, §8
Survival values of this parameter less then 50% are considered acceptable in the current protocol.

[4] abbreviates: HIV-infected CEM cells, 6 days, XTT; approximate values; one value per run; read-out: EC50 (50% effective concentration, protection in infected cells).
Where [5] appears, read: ratio IC50/EC50 of the same run.
[6] abbreviates: drug-treated uninfected CEM cells, 6 days, XTT, approximate values, one value per run.
[7] abbreviates: Human immunodeficiency virus 1, CCRF-CEM, 144 h, HIV-infected CEM cells, 6 days, XTT; approximate values; one value per run; read-out: EC50 (50% effective concentration, protection in infected cells).
Setting [8] is: Homo sapiens, CCRF-CEM, 144 h, drug-treated uninfected CEM cells, 6 days, XTT, approximate values, one value per run.

Values joined by “and” are separate entries in the source; they are usually repeats but may differ in a detail not shown here. Identical values can stand only once. “Also recorded” adds a separate entry of the source. Like-named read-outs stand apart in the source and are kept apart here. Some results are limits rather than exact numbers.

Consider `CC(C)CCC[C@@H](C)[C@H]1CC[C@H]2[C@@H]3CC[C@H]4C[C@@H](CCC=C(c5cc(Cl)c(O)c(C(=O)O)c5)c5cc(Cl)c(O)c(C(=O)O)c5)CC[C@]4(C)[C@H]3CC[C@]12C` [Formula IV, 1,1-di(3'-ammoniumcarboxy-5'-chloro-4'-hydroxy)phenyl-4-(3β)-cholestanyl-1-butene], for which the “reverse transcriptase activity (FIG. 4)” value with reverse transcriptase was “indicating anti-HIV activity”. Also, the “infectious particles (FIG. 2)” value in the assay with HIV [1] is recorded as “indicating anti-HIV activity”. Moreover, the “p24 (FIG. 3)” value with HIV-1 p24 is listed as “indicating anti-HIV activity”. Besides, the “anti-HIV effect (statement)” value in the assay with HIV [2] (NCI anti-HIV screen, in vitro, CEM cells) was “greatest effect on inhibiting HIV-infected cells, while having a lesser effect on uninfected cells”; with HIV [2] (NCI anti-HIV screen, in vitro, CEM cells; listed as Cosalane), “highly effective anti-HIV agent in vitro; also recorded: most effective compounds studied in terms of prevention of the cytopathic effect of HIV in CEM lymphocytes”. In the assay on HIV [2] (read-out: EC50 (50% effective concentration, protection in infected cells); HIV-infected CEM cells, 6 days, XTT; approximate values; one value per run), the EC50 was determined as 6.7 µM. Further, the IC50 in assay [3] (Homo sapiens, CCRF-CEM, 144 h) was over 310 µM.

In the case of `CCCCCCCCCCCCCCCCC(c1ccc(O)c(C(=O)O)c1)c1ccc(O)c(C(=O)O)c1` [Formula XXII], the EC50 with HIV [2] (setting [4]) was found to be 3.9 µM. Besides, the “TI50 (IC/EC), therapeutic index” value in the assay with HIV [2] (setting [5]) is 1.56 × 10^0 and 3.06 × 10^+1 and 3.05 × 10^+1. The IC50 in assay [3] (setting [6]) was 51.4 µM and 119 µM.

With `CCCCCC=C(c1cc(Br)cc(C(=O)O)c1OC)c1cc(Br)cc(C(=O)O)c1OC` [Formula XXI], the EC50 in the assay with HIV [2] (setting [4]) turned out to be 69.3 µM; in the assay with HIV [2] (setting [7]) it was 97.1 µM. Besides, the “TI50 (IC/EC), therapeutic index” value in the assay with HIV [2] (setting [5]) was 1.80 × 10^0 and 3.52 × 10^0. For the same molecule, the results for the IC50 in assay [3] (setting [8]) and in assay [3] (setting [6]) were 175 µM and 244 µM, respectively.

On to `COc1c(Cl)cc(C(=Cc2c(F)c(F)c(F)c(F)c2F)c2cc(Cl)c(OC)c(C(=O)O)c2)cc1C(=O)O` [Formula XXV], for which the EC50 is 102 µM and 176 µM in the assay on HIV [2] (setting [4]); 140 µM in the assay with HIV [2] (setting [7]). For the same molecule, the IC50 in assay [3] (setting [8]) is 434 µM; in assay [3] (setting [6]) it was 552 µM and 412 µM.

The values are drawn from patent US5439899A, “Cosalane and related compounds having activity against aids and aids-related infections” (priority 1993, dated 1995).
